Data: patent US4956345A, “2-alkynyladenosines as antihypertensive agents” (Yamasa Shoyu Kabushiki Kaisha, priority 1985, dated 1990)
Where two headings read alike, the source gives them in different places.

Key:
[1] = system: heart rate; assay: Test 3: change in heart rate in NR; format: in vivo, male Wistar rats (normotensive rats; conditions: 100 μg/kg, procedure of Test 2, 10- to 12-week-old male Wistar rats
Method: (§1) The procedure of Test 2 was followed with 10- to 12-week-old male Wistar rats (divided into groups of three rats each) to measure the hypotensive effects of the respective pharmaceutical preparations (100 μg/kg). Simultaneously, the change in heart rate was measured. The heart rate was measured by an ictometer based on the systolic blood pressure as a trigger.

[2] = system: blood pressure in NR; assay: Test 3: effect on the blood pressure in NR, intravenous; format: in vivo, male Wistar rats (normotensive rats; conditions: 100 μg/kg, procedure of Test 2 (femoral vein), 10- to 12-week-old male Wistar rats
Method: (§2) Thirty-two-week-old male SHRs (divided into groups of three rats each) were anesthetized with urethane (1.1 g/kg, i.p.), and the blood pressure of each of the rats delivered from the common carotid artery was recorded on a polygraph through a pressure transducer (Model MPU-0.5).
(§3) The pharmaceutical preparation was administered through a cannula inserted into the femoral vein of the rat at a rate of 0.5 ml/kg, and the blood pressure was measured continuously from before administration to 30 minutes after administration.
as §1

[3] = system: blood pressure in SHR; assay: Test 1: effect on the blood pressure in SHR, oral, tail artery sphygmomanometer; format: in vivo, spontaneously hypertensive rats (SHR); conditions: 12- to 15-week-old male SHR, maximum within 2, 4, 6 and 8 hours
Method: To twelve- to fifteen-week-old male SHRs were orally administered test compounds each suspended in 0.5% CMC/physiological saline at a rate of 2 ml/kg. The blood pressure of the thus treated SHRs was measured by means of a tail artery sphygmomanometer (supplied by Nalco Co., Model PE-300) prior to the oral administration and at 2, 4, 6 and 8 hours thereafter. Reduction in blood pressure was calculated on the basis of the values thus obtained, and the maximum reduction levels attained by the respective compounds are summarized in TABLE 2. Each test compound was evaluated with a group of 4 rats.

[4] = system: blood pressure in SHR; assay: Test 2: effect on the blood pressure in SHR, intravenous, anesthetized; format: in vivo, spontaneously hypertensive rats (SHR), male; conditions: for Reduction in blood pressure (-Δmax, mmHg): 100 μg/kg, femoral vein, 32-week-old male SHR, urethane anesthesia, 30 minutes; for selectivity of hypotensive effect, SHR versus NR (in words): TABLES 3 and 4, 100 μg/kg
Method: as §2, §3

[5] = system: male Jcl:ICR mice; assay: Test 5: Acute toxicity; format: in vivo
Method: (§4) The acute toxicity of Compound 8(n=13) was tested with seven-week-old male Jcl:ICR mice.
(§5) The physically allowable doses of Compound 8 for intraperitoneal administration and oral administration were 800 mg/kg and 1,300 mg/kg, respectively.

[6] = system: blood pressure in NR; assay: Test 4: effect on the blood pressure in NR, oral; format: in vivo, male Wistar rats (normotensive rats; conditions: Wistar rat, 18- to 20-week-old male, 10 mg/kg
Method: Eighteen- to twenty-week-old male SHR (divided into groups of four rats each) and eighteen- to twenty-week-old male Wistar rats (divided into groups of four rats each) were orally administered with Compound 8(n=13) in the same manner as in Test 2 at a dose of 10 mg/kg, and the blood pressure of each of the rats was measured.

[7] = Test 5: Acute toxicity; format: in vivo; conditions: mouse, in vivo
Method: as §4, §5

[8] = system: blood pressure in SHR; assay: Test 4: effect on the blood pressure in SHR, oral; format: in vivo, spontaneously hypertensive rats (SHR), male; conditions: 10 mg/kg
[9] = system: adenosine deaminase; conditions: background statement; cited from earlier work
[10] = system: heart; conditions: side effect, background statement; cited from earlier work

## CCCC#Cc1nc(N)c2ncn([C@@H]3O[C@H](CO)[C@@H](O)[C@H]3O)c2n1 [Compound 1]
[1]
  Change in heart rate (ΔHR): -48
[2]
  Reduction in blood pressure (-Δmax, mmHg): 21 mmHg

## CCCCC#Cc1nc(N)c2ncn([C@@H]3O[C@H](CO)[C@@H](O)[C@H]3O)c2n1 [Compound 2]
[1]
  Change in heart rate (ΔHR): -36
[3]; 1 mg/kg
  Reduction in blood pressure (-Δmax, mmHg): > 136 mmHg
[2]
  Reduction in blood pressure (-Δmax, mmHg): 42 mmHg

## CCCCCC#Cc1nc(N)c2ncn([C@@H]3O[C@H](CO)[C@@H](O)[C@H]3O)c2n1 [Compound 3]
[1]
  Change in heart rate (ΔHR): -180
[2]
  Reduction in blood pressure (-Δmax, mmHg): 48 mmHg

## CCCCCCC#Cc1nc(N)c2ncn([C@@H]3O[C@H](CO)[C@@H](O)[C@H]3O)c2n1 [Compound 4]
[1]
  Change in heart rate (ΔHR): -288
[3]; 1 mg/kg
  Reduction in blood pressure (-Δmax, mmHg): 69 mmHg
[2]
  Reduction in blood pressure (-Δmax, mmHg): 55 mmHg

## CCCCCCCCC#Cc1nc(N)c2ncn([C@@H]3O[C@H](CO)[C@@H](O)[C@H]3O)c2n1 [Compound 5]
[1]
  Change in heart rate (ΔHR): -18
[3]; 3 mg/kg
  Reduction in blood pressure (-Δmax, mmHg): 106 mmHg
[2]
  Reduction in blood pressure (-Δmax, mmHg): 24 mmHg

## CCCCCCCCCCC#Cc1nc(N)c2ncn([C@@H]3O[C@H](CO)[C@@H](O)[C@H]3O)c2n1 [Compound 6]
[4]
  Reduction in blood pressure (-Δmax, mmHg): 20 mmHg
  selectivity of hypotensive effect, SHR versus NR (in words): substantially equal hypotensive effect on SHR and NR
[1]
  Change in heart rate (ΔHR): -12
[3]; 3 mg/kg
  Reduction in blood pressure (-Δmax, mmHg): 65 mmHg
[2]
  Reduction in blood pressure (-Δmax, mmHg): 26 mmHg
[5]; mouse, in vivo
  mortality, intraperitoneal administration of 500 mg/kg: all the five mice forming one group died

## CCCCCCCCCCCCC#Cc1nc(N)c2ncn([C@@H]3O[C@H](CO)[C@@H](O)[C@H]3O)c2n1 [Compound 7]
[4]
  Reduction in blood pressure (-Δmax, mmHg): 21 mmHg
  selectivity of hypotensive effect, SHR versus NR (in words): acted selectively on SHR
[1]
  Change in heart rate (ΔHR): 0
[3]; 3 mg/kg
  Reduction in blood pressure (-Δmax, mmHg): 65 mmHg
[2]
  Reduction in blood pressure (-Δmax, mmHg): 10 mmHg

## CCCCCCCCCCCCCCC#Cc1nc(N)c2ncn([C@@H]3O[C@H](CO)[C@@H](O)[C@H]3O)c2n1 [Compound 8]
[6]; 1 hr
  Reduction in blood pressure (-Δ, mmHg), 1 hr. after administration: 16 mmHg
[6]; 2 hrs
  Reduction in blood pressure (-Δ, mmHg), 2 hrs. after administration: 24 mmHg
[4]
  Reduction in blood pressure (-Δmax, mmHg): 16 mmHg
  selectivity of hypotensive effect, SHR versus NR (in words): acted selectively on SHR
[1]
  Change in heart rate (ΔHR): 0
[3]; 3 mg/kg
  Reduction in blood pressure (-Δmax, mmHg): 48 mmHg
[2]
  Reduction in blood pressure (-Δmax, mmHg): 5 mmHg
[5]; compared with long-chain compound such as Compound 6
  toxicity compared with Compound 6 (in words): less toxic
[5]; mouse, in vivo
  mortality at maximum doses: None of the mice administered with the test compound at these maximum doses, divided into groups of five mice each, died
[7]; ip, read-out: LD50, intraperitoneal administration
  LD50: > 800 mg/kg
[7]; po
  selectivity ratio: ≥ 400
[7]; po, read-out: LD50, oral administration
  LD50: > 1300 mg/kg
[8]; SHR versus Wistar rat, TABLE 5
  selectivity of hypotensive effect on SHR, oral (in words): tendency of Compound 8(n=13) to act selectively on SHR
[8]; SHR, 18- to 20-week-old male, 1 hr
  Reduction in blood pressure (-Δ, mmHg), 1 hr. after administration: 41 mmHg
[8]; SHR, 18- to 20-week-old male, 2 hrs
  Reduction in blood pressure (-Δ, mmHg), 2 hrs. after administration: 42 mmHg

## CCCCCCCCCCCCCCCC#Cc1nc(N)c2ncn([C@@H]3O[C@H](CO)[C@@H](O)[C@H]3O)c2n1 [Compound 9]
[1]
  Change in heart rate (ΔHR): -6
[3]; 3 mg/kg
  Reduction in blood pressure (-Δmax, mmHg): 35 mmHg
[2]
  Reduction in blood pressure (-Δmax, mmHg): 3 mmHg

## CCCCCCCCCCCCCCCCC#Cc1nc(N)c2ncn([C@@H]3O[C@H](CO)[C@@H](O)[C@H]3O)c2n1 [Compound 10]
[1]
  Change in heart rate (ΔHR): -5
[3]; 3 mg/kg
  Reduction in blood pressure (-Δmax, mmHg): 46 mmHg
[2]
  Reduction in blood pressure (-Δmax, mmHg): 10 mmHg

## Nc1ncnc2c1ncn2[C@@H]1O[C@H](CO)[C@@H](O)[C@H]1O [adenosine]
[9]
  deamination by adenosine deaminase: rapidly deaminated by adenosine deaminase
[10]
  suppressive effect on the heart: strong suppressive effect on the heart
